Assay results published in patent publication US12029751B2, “Therapeutic agent for nervous system disease” (OSAKA UNIVERSITY, priority 2017, dated 2024).

Key:
[1] = system: photocoagulation-induced cerebral infarction model C57BL/6J mice; experiment: Rotarod test in photocoagulation-induced cerebral infarction model; format: in vivo, mouse
Procedure: Eight to 10-week-old male C57BL/6J mice (about 24 g) were used. A photocoagulation-induced cerebral infarction model for laser light irradiation after rose bengal administration was constructed. In this model, the skull of each mouse was drilled to open a hole having a center at 2 mm from the anterior fontanel in the outward direction. At 5 minutes after a photosensitive dye rose bengal was administered, the right motor cortex as a center was irradiated with laser light to create cerebral infarction in the right lateral motor cortex. An osmotic pump (ALZET osmotic pumps, for 2-week operation) was embedded immediately after the creation of the cerebral infarction. The mice were divided into a methylcobalamin treatment group (N=3) and an untreated group (N=4), and rotarod tests (accelerating velocity method) were carried out at 2, 4, 7, 9, 11, and 14 days after the surgery creating cerebral infarction. The time until a mouse fell from a rotarod was measured, and a ratio to a maximum of 300 seconds as baseline was calculated.

[2] = system: Mouse macrophage cell line J774A.1; experiment: Western blot of M1 markers (IL-1β, iNOS) and M2 markers (Arg1, CD206) in macrophage cell line; format: cell-based; conditions: for Arg1 protein / GAPDH protein / CD206 protein / GAPDH protein: 72 hours; for IL-1β protein / GAPDH protein / iNOS protein / GAPDH protein: 24 hours
Procedure: Mouse macrophage cell line J774A.1 (JCRB9108) was purchased from JCRB Cell Bank (Laboratory of Cell Cultures), Osaka, Japan. Cells were cultured in DMEM containing 10% FBS and 1% penicillin/streptomycin.
The J774A.1 cells (Example 5-1) were seeded on a dish having a diameter of 6 cm. After 4 days, proteins were collected using a cell lysis buffer containing a cocktail of protease inhibitors. The protein concentration was measured by BCA assay. Then, 50 μg of each sample was subjected to SDS-PAGE, and the electrophoresed proteins were transferred to a polyvinylidene difluoride membrane. The membrane was blocked with a blocking buffer for 1 hour, and then the proteins were allowed to react with primary antibodies at 4° C. overnight. The proteins were further allowed to react with a secondary antibody at room temperature for 1 hour and detected using ECL Western Blotting Detection System. To detect the M1 markers iNOS and IL-1β, lipopolysaccharide (LPS) (100 ng/ml) and methylcobalamin were added at 24 hours before collecting the proteins. To detect the M2 markers Arg1 and CD206, IL-4 (20 ng/ml) and methylcobalamin were added at 72 hours before collecting the proteins.
The primary antibodies used were a rabbit anti-IL-1β polyclonal antibody (Santa Cruz), a rabbit anti-iNOS monoclonal antibody (Abeam), a rabbit anti-Arg1 polyclonal antibody (Santa Cruz), and a rabbit anti-CD206 monoclonal antibody (Abeam). The secondary antibody used was anti-rabbit IgG, horseradish peroxidase-linked whole antibody from donkey (GE Healthcare Life Sciences).

[3] = system: rat spinal cord injury model; experiment: Thermal algesimetry test in rat spinal cord injury model; format: in vivo; conditions: for Thermal algesimetry test, Time after spying infrared thermal stimulation: right sole
Procedure: Six-week-old female Wistar rats were used. The rats were purchased from Charles River Laboratories Japan, Inc. (Yokohama, Japan). Anesthesia was performed as follows. A 1:10 dilution of a mixture of three anesthetic agents in physiological saline was administered by intraperitoneal injection. One dose consisted of 0.2 mg/kg of midazolam, 0.015 mg/kg of medetomidine, and 0.25 mg/kg of butorphanol. The rat was placed in a prone position on an operating table, and a dorsal midline incision was made. The T10 vertebral arch was removed to expose the posterior face of the spinal cord, and the left spinal cord was hemisected using a sharp-pointed surgical scalpel (spitz mess). The skin was sutured using a 4-0 nylon thread and the surgery was completed. A comparison was made among three groups: a methylcobalamin treatment group, an untreated group, and a sham group. Immediately after the surgical operation, an osmotic minipump filled with methylcobalamin (1 mg/kg/day) or physiological saline was placed for the methylcobalamin treatment group and the untreated group, respectively, and left in the left dorsal subcutaneous space. The sham group underwent only resection of the Th10 vertebral arch.
Each rat was separately accommodated in a dedicated cage, an infrared thermal stimulation was applied to the right sole, and time until the rat retracted the hind limb was measured. To avoid damage to the skin, the stimulation was continued for 15 seconds at the maximum. The evaluations were performed before surgery, and at 7, 14, 21, and 28 days after the surgery.

C/C1=C2/[N-][C@H]([C@H](CC(N)=O)[C@@]2(C)CCC(=O)NC[C@@H](C)OP(=O)([O-])O[C@H]2[C@@H](O)[C@@H](n3cnc4cc(C)c(C)cc43)O[C@@H]2CO)[C@]2(C)N=C(/C(C)=C3N=C(/C=C4N=C1[C@@H](CCC(N)=O)C\4(C)C)[C@@H](CCC(N)=O)[C@]\3(C)CC(N)=O)[C@@H](CCC(N)=O)[C@]2(C)CC(N)=O.[CH3-].[Co+3] [MeCbl, methylcobalamin]
rotarod test: time until fall, ratio to a maximum of 300 seconds as baseline ([1]; 0 day after PIT operation (baseline)): 0.998
rotarod test: time until fall, ratio to a maximum of 300 seconds as baseline ([1]; 2 days after PIT operation, osmotic pump): 0.470
rotarod test: time until fall, ratio to a maximum of 300 seconds as baseline ([1]; 2 days after PIT operation, osmotic pump, listed as methylcobalamin): significantly improved
rotarod test: time until fall, ratio to a maximum of 300 seconds as baseline ([1]; 4 days after PIT operation, osmotic pump): 0.573
rotarod test: time until fall, ratio to a maximum of 300 seconds as baseline ([1]; 4 days after PIT operation, osmotic pump, listed as methylcobalamin): significantly improved
rotarod test: time until fall, ratio to a maximum of 300 seconds as baseline ([1]; 7 days after PIT operation, osmotic pump): 0.370
rotarod test: time until fall, ratio to a maximum of 300 seconds as baseline ([1]; 9 days after PIT operation, osmotic pump): 0.437
rotarod test: time until fall, ratio to a maximum of 300 seconds as baseline ([1]; 9 days after PIT operation, osmotic pump, listed as methylcobalamin): significantly improved
rotarod test: time until fall, ratio to a maximum of 300 seconds as baseline ([1]; 11 days after PIT operation, osmotic pump): 0.521
rotarod test: time until fall, ratio to a maximum of 300 seconds as baseline ([1]; 14 days after PIT operation, osmotic pump): 0.510
Arg1 protein / GAPDH protein ([2]; IL-4 20 ng/ml + MeCbl 1 nM): 1.42
CD206 protein / GAPDH protein ([2]; IL-4 20 ng/ml + MeCbl 1 nM): 1.28
Arg1 protein / GAPDH protein ([2]; IL-4 20 ng/ml + MeCbl 10 nM): 1.60
CD206 protein / GAPDH protein ([2]; IL-4 20 ng/ml + MeCbl 10 nM): 1.49
Arg1 protein / GAPDH protein ([2]; IL-4 20 ng/ml + MeCbl 100 nM): 1.93
CD206 protein / GAPDH protein ([2]; IL-4 20 ng/ml + MeCbl 100 nM): 1.53
Arg1 protein / GAPDH protein ([2]; IL-4 20 ng/ml + MeCbl 100 nM, listed as methylcobalamin): significantly increased
Arg1 protein / GAPDH protein ([2]; IL-4 20 ng/ml + MeCbl 1 μM): 1.65
CD206 protein / GAPDH protein ([2]; IL-4 20 ng/ml + MeCbl 1 μM): 1.58
Arg1 protein / GAPDH protein ([2]; IL-4 20 ng/ml + MeCbl 1 μM, listed as methylcobalamin): significantly increased
Arg1 protein / GAPDH protein ([2]; IL-4 20 ng/ml + MeCbl 10 μM): 1.26
CD206 protein / GAPDH protein ([2]; IL-4 20 ng/ml + MeCbl 10 μM): 1.08
Arg1 protein / GAPDH protein ([2]; IL-4 20 ng/ml + MeCbl 100 μM): 0.92
CD206 protein / GAPDH protein ([2]; IL-4 20 ng/ml + MeCbl 100 μM): 1.12
Arg1 protein / GAPDH protein ([2]; IL-4 20 ng/ml + MeCbl 1 mM): 0.54
CD206 protein / GAPDH protein ([2]; IL-4 20 ng/ml + MeCbl 1 mM): 0.78
methylcobalamin concentration at peaks of the CD206 levels ([2]; IL-4 + methylcobalamin, Western blot): 100 to 1000 nM
IL-1β protein / GAPDH protein ([2]; LPS 100 ng/ml + MeCbl 1 nM): 0.91
iNOS protein / GAPDH protein ([2]; LPS 100 ng/ml + MeCbl 1 nM): 0.87
IL-1β protein / GAPDH protein ([2]; LPS 100 ng/ml + MeCbl 10 nM): 0.68
iNOS protein / GAPDH protein ([2]; LPS 100 ng/ml + MeCbl 10 nM): 0.56
IL-1β protein / GAPDH protein ([2]; LPS 100 ng/ml + MeCbl 100 nM): 0.46
iNOS protein / GAPDH protein ([2]; LPS 100 ng/ml + MeCbl 100 nM): 0.15
IL-1β protein / GAPDH protein ([2]; LPS 100 ng/ml + MeCbl 100 nM, listed as methylcobalamin): significantly decreased
IL-1β protein / GAPDH protein ([2]; LPS 100 ng/ml + MeCbl 1 μM): 0.46
iNOS protein / GAPDH protein ([2]; LPS 100 ng/ml + MeCbl 1 μM): 0.27
IL-1β protein / GAPDH protein ([2]; LPS 100 ng/ml + MeCbl 10 μM): 0.60
iNOS protein / GAPDH protein ([2]; LPS 100 ng/ml + MeCbl 10 μM): 0.33
IL-1β protein / GAPDH protein ([2]; LPS 100 ng/ml + MeCbl 100 μM): 0.75
iNOS protein / GAPDH protein ([2]; LPS 100 ng/ml + MeCbl 100 μM): 0.45
IL-1β protein / GAPDH protein ([2]; LPS 100 ng/ml + MeCbl 1 mM): 1.26
iNOS protein / GAPDH protein ([2]; LPS 100 ng/ml + MeCbl 1 mM): 0.53
iNOS level (Western blot) as compared with LPS alone ([2]; LPS + 100 nM to 10 μM methylcobalamin): significantly decreased
Thermal algesimetry test, Time after spying infrared thermal stimulation ([3]; 0 days after surgery (before surgery)): 9.99 s
right-lower-extremity hyperesthesia (thermal algesimetry test) ([3]; 21 and 28 days after the surgery, 1 mg/kg/day osmotic minipump): significantly improved
Thermal algesimetry test, Time after spying infrared thermal stimulation ([3]; 7 days after surgery): 8.59 s
Thermal algesimetry test, Time after spying infrared thermal stimulation ([3]; 14 days after surgery): 8.86 s
Thermal algesimetry test, Time after spying infrared thermal stimulation ([3]; 21 days after surgery): 9.61 s
Thermal algesimetry test, Time after spying infrared thermal stimulation ([3]; 28 days after surgery): 9.92 s
